Tests used:
[1] = system: AdV; experiment: microbe, parasite or virus in culture; type: cell-based; conditions: unidentified adenovirus, A549 cells
[2] = system: HCMV; experiment: Plaque-reduction assay for HCMV; type: cell-based, human cytomegalovirus; conditions: Human betaherpesvirus 5, HFF cells
Experimental: Plaque-Reduction Assays for HSV-1, HSV-2, VZV and HCMV:
Monolayers of cells were prepared in six-well plates and incubated at to allow the cells to reach confluency. Media was then aspirated from the wells and of virus was added to each of three wells to yield 20-30 plaques in each well. The virus was allowed to adsorb to the cells for 1 h and the plates were rocked gently every 15 min to redistribute the media. Compounds were diluted in maintenance cell culture media consisting of MEM with Earl's salts supplemented with 2% FBS, L-glutamine, penicillin, and gentamycin. Solutions were added to duplicate wells and the plates were incubated for various times, depending on the virus used. The plaque-reduction assay with HSV-1 strain F was performed in a similar manner but with Vero cells infected one day after plating. For HSV-1 and -2, the monolayers were stained with 1% crystal violet in 20% methanol and the unbound dye removed by washing with dH2O. For assays with HCMV and VZV, the cell monolayer was stained with 1% Neutral Red solution for 4 h then the stain was aspirated and the cells were washed with PBS. For all assays, plaques were enumerated using a stereomicroscope and the concentration of compound that reduced plaque formation by 50% (EC50) was interpolated from the experimental data. […]

[3] = system: HHV-6B; experiment: organism not typed; type: cell-based; conditions: MOLT-3 cells
[4] = system: MEV; experiment: microbe, parasite or virus in culture; type: cell-based; conditions: Measles morbillivirus, Vero 76, Vero76 cells
[5] = system: DENV-2; experiment: microbe, parasite or virus in culture; type: cell-based; conditions: Dengue virus, DENV2, Vero 76; DENV-2, Vero76 cells
[6] = system: HCV; experiment: microbe, parasite or virus in culture; type: cell-based; conditions: Hepatitis C virus, Huh 7 cells
Experimental: (§1) Luciferase reporter (Replicon)/CytoTox-1 (Toxicity). Compounds were screened for anti-HCV activity using a luciferase (Luc) reporter gene endpoint in the HCV primary assay. The Luc reporter was used as an indirect measure of HCV replication as its activity is directly proportional to HCV RNA levels. Assessment of cytotoxicity is conducted in parallel. Drug stocks were prepared in DMSO unless otherwise specified and were diluted with tissue culture medium to the desired high-test concentration. For each assay, the compounds were then further diluted in tissue culture medium as required. After incubation, the cells were processed to derive, where applicable, EC50 and EC90 (compound concentration reducing replicon replication by 50% and 90% respectively). […] Anti-HCV activity was assessed with the replicon (genotype 1b or 2a) or HCVcc virus-derived Luc activity as readout; whereas the cytotoxic concentrations of drug reducing cell numbers was assessed by the CytoTox-1 cell proliferation assay according to manufacturer's protocol. […]
(§2) Luciferase reporter (Replicon)/CytoTox-1 (Toxicity). […] Anti-HCV activity was assessed with the replicon (genotype 1b or 2a) or HCVcc virus-derived Luc activity as readout; whereas the cytotoxic concentrations of drug reducing cell numbers was assessed by the CytoTox-1 cell proliferation assay (Promega, Madison, Wis.) according to manufacturer's protocol. […]

[7] = system: Flu (H1N1); experiment: microbe, parasite or virus in culture; type: cell-based; conditions: Influenza A virus, MDCK cells
[8] = system: POV-3; experiment: microbe, parasite or virus in culture; type: cell-based, Poliovirus; conditions: Enterovirus C, Vero 76
[9] = system: WNV; experiment: microbe, parasite or virus in culture; type: cell-based; conditions: West Nile virus, Vero 76, Vero76 cells
[10] = Parallel cytotoxicity assay in 293TT cells; type: cell-based; conditions: human, parallel to JCV assay
Experimental: Every antiviral assay included a parallel cytotoxicity assay with the same cells used for each virus, the same cell number, the same drug concentrations, and the same incubation times to provide the same drug exposure. To ensure that the cytotoxicity of all compounds could be compared directly, a standard neutral red uptake cytotoxicity assay for all compounds in confluent HFF cells with a 7 d incubation period was performed.

[11] = CytoTox-1 cytotoxicity assay in Huh 7 cells; type: cell-based; conditions: human, parallel to HCV assay
Experimental: as §1, §2

Cc1nc(N)c2c(C(N)=O)cn([C@@H]3O[C@H](CO)[C@@H](O)[C@H]3O)c2n1 [Compound 1, 4-amino-7-((2R,3R,4S,5R)-3,4-dihydroxy-5-(hydroxymethyl)tetrahydrofuran-2-yl)-2-methyl-7H-pyrrolo[2,3-d]pyrimidine-5-carboxamide]
EC50 [1]: > 100 µM
EC50 [2]: > 60 µM
EC50 [3]: 39.7 µM
EC50 [4]: > 100 µM
EC50 [5]: > 100 µM
EC50 [6]: 18.4 µM
EC50 [7]: > 100 µM
EC50 [8]: > 100 µM
EC50 [9]: > 100 µM
CC50 [10]: > 60 µM
CC50 [11]: > 20 µM
